Assays:
CHOP/GADD153 = assay: Western blot of CHOP/GADD153, hypoxic HT1080 cells; type: cell-based, human; settings: 2.5 μM; hypoxia for 6-12 hours
Description: Cells (2×10^6) were cultured in 10-cm dishes, collected using a cell scraper at 4° C., and lysed by addition of 150 μl cell lysis buffer [50 mM Tris pH 7.4, 150 mM NaCl, 10% glycerol, 0.5% Triton X-100. 0.5% NP-40, 2 mM Na3VO4, 20 mM beta-glycerophosphate, 10 mM NaF, 1 mM DTT, 1 mM PMSF). Lysates were centrifuged for 5 min at 10,000×g, and proteins (˜40 μg) were resolved by SDS-PAGE followed by semi-dry transfer to nitrocellulose membranes. Membranes were blocked in TBS-5% milk supplemented with 0.1% Tween-20. The blots were then probed overnight with relevant antibodies, washed, and incubated for 2 hours with species-specific secondary antibodies conjugated to horseradish peroxidase. After washing in block solution, immunoreactive material was detected by enhanced chemiluminescence (SuperSignal West Dura Extended, Pierce, Inc., Rockville, Ill.).
A. Effect of irestatin 9389 on PERK and ATF6 pathways. […] Protein lysates were analyzed by Western blot analysis using antisera specific for ATF6 (top), CHOP/GADD153 (middle) or actin (bottom). […] Cells were harvested, counted, and allowed to grow under normal culture conditions for 11-12 days. […] D. Quantification of clonogenic survival assay. […] F. Quantification of TUNEL-positive cells. […] Cells were harvested at the indicated times and counted by hemocytometer. Values represent the mean calculated from triplicate experiments+/−SEM. […]

HT1080 cells = assay: TUNEL staining, HT1080 cells under hypoxia; type: cell-based, human; settings: 2.5 μM; 48 hours of hypoxia
Description: A. Effect of irestatin 9389 on PERK and ATF6 pathways. HT1080 cells were treated with vehicle alone (lanes 1-4) or 2.5 μM irestatin 9389 (lanes 5-8) and cultured under aerobic conditions for 18 hours (N) or shifted to hypoxia for the indicated times. Protein lysates were analyzed by Western blot analysis using antisera specific for ATF6 (top), CHOP/GADD153 (middle) or actin (bottom). Arrow indicates the cleaved, transcriptionally active form of ATF6. B. Cleavage of caspase-3 in irestatin-treated cells under hypoxia. HT1080 cells were cultured in normoxia (N) or under hypoxia for 36 hours (H 36) in absence or presence of irestatin 9389 (2.5 μM). Arrows indicate proteolytically cleaved caspase-3. C. Colony formation assay. HT1080 cells were treated as in B under normoxia (N) or hypoxia for 48 hours (H 48). Cells were harvested, counted, and allowed to grow under normal culture conditions for 11-12 days. Colonies were visualized with crystal violet staining. D. Quantification of clonogenic survival assay. Values represent the mean+/−SEM from at least 4 independent experiments. E. TUNEL staining of cells treated as in C. F. Quantification of TUNEL-positive cells. Values represent the mean+/− SEM from at least 3 experiments. […] Cells were harvested at the indicated times and counted by hemocytometer. Values represent the mean calculated from triplicate experiments+/−SEM. […]

[1] = Blood chemistry, complete blood count and histopathology; type: in vivo, mice
Description: Complete blood counts (CBC's) and clinical chemistry panels were performed on blood obtained by cardiac puncture after euthanasia with CO2 Gross necropsies were performed, all major viscera were harvested, fixed in 10% buffered neutral formalin, routinely processed for paraffin embedding, and stained with hematoxylin and eosin (H&E). Sections were analyzed by a board-certified veterinary pathologist (DMB). […]

[2] = irestatin-treated nude mice, terminal cardiac blood draw, mean

## Cc1csc(NC(=O)CSc2nc3c(c(C(F)(F)F)c2C#N)CCC3)n1 [Compound 9389]
CHOP/GADD153
  expression of CHOP/GADD153: increased
HT1080 cells
  TUNEL-positive cells: 35%
[1]; 3-4 doses of 50 mg/kg every other day
  tolerability (kidney, liver, bone marrow function): well tolerated
[1]; irestatin- and vehicle-treated animals
  fasting blood glucose levels versus vehicle: no significant difference in fasting blood glucose levels
[1]; [2]
  ALT: 29.4 IU/L
  AST: 117.775 IU/L
  Anion Gap: 17.975 mM
  Carbon Dioxide: 25.075 mM
  Chloride: 116.75 mM
  Cholesterol: 102 mg/dL
  Glucose: 124.5 mg/dL
  HCT: 47%
  HGB: 14.625 gm/dL
  Na/K Ratio: 20.3
  Platelets: 805.5 K/uL
  Potassium: 7.5175 mM
  RBC: 10.375 M/uL
  Sodium: 152.25 mM
  Total Bilirubin: 0.3 mg/dL
  WBC: 5.19 K/uL
[1]; three doses, 50 mg/kg
  histopathological analysis of all major organs: no significant differences between the vehicle and irestatin treatment groups

— patent US20130150399A1, “INHIBITORS OF THE UNFOLDED PROTEIN RESPONSE AND METHODS FOR THEIR USE” (The Board of Trustees of the Leland Stanford Junior …, priority 2006, published 2013)
